A melting point of 250 to 251 °C was found for `O=C1Nc2ccc(Br)cc2C1=NO` [Compound 1a, 5-Bromoisatin 3-oxime] in this work. A melting point of 232 to 236 °C was found for `CN1C(=O)C(=NO)c2cc(Cl)c(Cl)cc21` [Compound 1b, 5,6-dichloro-1-methylisatin 3-oxime] in this work. A melting point of 140 to 142 °C was found for `CN1C(=O)C(=NO)c2c1ccc(Cl)c2Cl` [Compound 1d, 4,5-dichloro-1-methylisatin 3-oxime] in this work. A melting point greater than 200 °C was found for `CN1C(=O)C(=NO)c2ccc(Cl)c(Cl)c21` [Compound 1j, 6,7-Dichloro-1-methylisatin 3-oxime] in this work. A melting point of 263 to 264 °C was found for `O=C1Nc2c(ccc(F)c2F)C1=NO` [Compound 1o, 6,7-Difluoroisatin 3-oxime] in this work. A melting point of 283 to 284 °C was found for `Cc1ccc2c(c1C)NC(=O)C2=NO` [Compound 1p, 6,7-Dimethylisatin 3-oxime] in this work. A melting point of 274 to 275 °C was found for `O=C1Nc2cc(Cl)c(Cl)cc2C1=NO` [Compound 1q, 5,6-Dichloroisatin 3-oxime] in this work. A melting point greater than 300 °C was found for `Cc1c(Cl)ccc2c1NC(=O)C2=NO` [Compound 1u, 6-Chloro-7-methylisatin 3-oxime] in this work. With `Cc1c(F)ccc2c1NC(=O)C2=NO` [Compound 1v, 6-Fluoro-7-methylisatin 3-oxime] the melting point was 286 °C (dec.). A melting point of 268 to 270 °C was found for `COc1c(F)ccc2c1NC(=O)C2=NO` [Compound 1w, 6-Fluoro-7-methoxyisatin 3-oxime] in this work.

Source: patent US6969729B2, “Use of isatin derivatives as ion channel activating agents” (Neurosearch A/S, priority 1998, dated 2005)
